{"source": "patent US20100173972A1", "about": "“METHODS AND USES RELATED TO RHBDL4” (MEDICAL RESEARCH COUNCIL, priority 2007, published 2010)", "key": {"[1]": {"test_system": "HB-EGF shedding, COS-7 cells", "assay": "HB-EGF secretion in COS-7 cells overexpressing the bombesin receptor", "assay_type": "cell-based, green monkey", "experimental": "Cells were propagated in DMEM supplemented with 10% fetal calf serum. COS-7 cells were transfected in 35 mm wells with FuGENE 6 (Roche) as described (7). In brief, 250 ng plasmid encoding the substrate (as indicated in the description of the figures), 25 ng for the rhomboid tested, 50 ng for the GRP receptor and empty plasmid to bring the total DNA to 1 μg was used. […] Transfection efficiency was monitored by co-transfection of pEGFP (Invitrogen). Sixteen hours post transfection, medium was replaced with serum-free medium containing 10 μM BB94 (British Biotech) unless otherwise stated. For activation of endogenous rhomboid activity, phorbol 12-myristate 13-acetate (PMA) (1 μM, from Sigma) or bombesin (100 nM, from Sigma) was added to the cell medium. For inhibitor studies, the indicated protease inhibitors (from Calbiochem), diluted from a stock solution in DMSO, were compared with a carrier only. […] Cells were solubilized in SDS-sample buffer and analyzed by SDS-PAGE. […] Conditioned media were centrifuged for 10 minutes at full speed in a microfuge to remove cell debris, and subsequently proteins in the supernatant were precipitated by adding trichloroacetic acid (TCA) to 10%. The precipitate was recovered by centrifugation, washed with acetone and dissolved in SDS-PAGE sample buffer and analyzed by SDS-PAGE. […]"}, "[2]": {"test_system": "TGFalpha release, HEK293T cells", "assay": "Time course after PMA induction of HEK293T cells overexpressing pro-TGFalpha, with protease inhibitors", "assay_type": "cell-based, human", "method": "Cell culture and cell-based rhomboid cleavage assay. Cells were propagated in DMEM supplemented with 10% fetal calf serum. COS-7 cells were transfected in 35 mm wells with FuGENE 6 (Roche) as described (7). In brief, 250 ng plasmid encoding the substrate (as indicated in the description of the figures), 25 ng for the rhomboid tested, 50 ng for the GRP receptor and empty plasmid to bring the total DNA to 1 μg was used. For protease titration, 2.5 ng to 250 ng plasmid coding RHBDL4 was used. HeLa and HEK293T were transfected with polyethyleneimine (linear, MW 25000; Polysciences) as described (32) using twice the amount of DNA as used with FuGENE. Transfection efficiency was monitored by co-transfection of pEGFP (Invitrogen). Sixteen hours post transfection, medium was replaced with serum-free medium containing 10 μM BB94 (British Biotech) unless otherwise stated. For activation of endogenous rhomboid activity, phorbol 12-myristate 13-acetate (PMA) (1 μM, from Sigma) or bombesin (100 nM, from Sigma) was added to the cell medium. For inhibitor studies, the indicated protease inhibitors (from Calbiochem), diluted from a stock solution in DMSO, were compared with a carrier only. Medium was harvested typically after 24 to 30 hours; for inhibitor studies using 3,4-Dichloroisocoumarin (DCI) a time course with 0 minutes, 30 minutes and 4 hours was performed (FIG. 4C). Cells were solubilized in SDS-sample buffer and analyzed by SDS-PAGE. EndoH (New England Biolabs) and PNGaseF (New England Biolabs) treatment of SDS-solubilized cell extracts was performed according to the manufacturers instructions. Conditioned media were centrifuged for 10 minutes at full speed in a microfuge to remove cell debris, and subsequently proteins in the supernatant were precipitated by adding trichloroacetic acid (TCA) to 10%. The precipitate was recovered by centrifugation, washed with acetone and dissolved in SDS-PAGE sample buffer and analyzed by SDS-PAGE. Alternatively to TCA precipitation, TGFalpha-H8 in conditioned medium was captured by metal-chelate chromatography using Ni-NTA agarose beads (Qiagen) in the presence of 20 mM imidazole at pH 8.0. Subsequently beads were washed with 20 mM Tris-Cl pH 8.0, 50 mM imidazole, eluted with SDS-sample buffer and analyzed by SDS-PAGE and Western blotting (see below). Typically, from a 35 mm tissue culture dish, 10% of cell extracts and 20% of tissue culture supernatant were loaded. To increase the sensitivity, for experiments shown in FIGS. 1C, 3E, 4A and 4C, five times the amount of the media fractions were loaded.\n(§1) Western blotting. Proteins were analyzed by 4-20% Tris-Glycine gradient gels (Invitrogen) followed by Western blot analysis using either anti FLAG M2-HRP (1:1000; Sigma), anti HA antibody 16B12 (1:1000; Covance), anti actin antibody ab8227 (1:5000; Abcam) or affinity purified polyclonal rabbit antibody anti RHBDL4 (1:4000; see above). In order to detect the 6 kDa form of TGFalpha, proteins were transferred on PVDF membrane with 0.2 μm pore size (Millipore) and probed with 1:100 anti TGFalpha antibody 134A-2B3 (Oncogene). For the detection of phosphorylated EGFR, PVDF membranes were blocked in 3% BSA in TBS-Tween supplemented with 200 μM NaVO3. Protein was detected with anti phospho-EGFR antibody 9H2 (1:2000, Upstate). […] Bound antibodies were detected by incubation with secondary antibody (Santa Cruz Biotechnology) followed by enhanced chemiluminescence (Amersham Biosciences)."}, "[3]": {"test_system": "pro-TGFalpha shedding", "assay": "BB94 sensitivity of endogenous pro-TGFalpha shedding and trimming (cell-based cleavage assay)", "method": "(§2) Cell culture and cell-based rhomboid cleavage assay. Cells were propagated in DMEM supplemented with 10% fetal calf serum. COS-7 cells were transfected in 35 mm wells with FuGENE 6 (Roche) as described (7). In brief, 250 ng plasmid encoding the substrate (as indicated in the description of the figures), 25 ng for the rhomboid tested, 50 ng for the GRP receptor and empty plasmid to bring the total DNA to 1 μg was used. For protease titration, 2.5 ng to 250 ng plasmid coding RHBDL4 was used. HeLa and HEK293T were transfected with polyethyleneimine (linear, MW 25000; Polysciences) as described (32) using twice the amount of DNA as used with FuGENE. Transfection efficiency was monitored by co-transfection of pEGFP (Invitrogen). Sixteen hours post transfection, medium was replaced with serum-free medium containing 10 μM BB94 (British Biotech) unless otherwise stated. For activation of endogenous rhomboid activity, phorbol 12-myristate 13-acetate (PMA) (1 μM, from Sigma) or bombesin (100 nM, from Sigma) was added to the cell medium. […] Cells were solubilized in SDS-sample buffer and analyzed by SDS-PAGE. […] The precipitate was recovered by centrifugation, washed with acetone and dissolved in SDS-PAGE sample buffer and analyzed by SDS-PAGE. […] Subsequently beads were washed with 20 mM Tris-Cl pH 8.0, 50 mM imidazole, eluted with SDS-sample buffer and analyzed by SDS-PAGE and Western blotting (see below). […]\nas §1, with “In order to detect the 6 kDa form of TGFalpha, proteins were transferred on PVDF membrane with 0.2 μm pore size (Millipore) and probed with 1:100 anti TGFalpha antibody 134A-2B3 (Oncogene). For the detection of phosphorylated EGFR, PVDF membranes were blocked in 3% BSA in TBS-Tween supplemented with 200 μM NaVO3.” left out"}, "[4]": {"target": "T1, mouse RHBDL4 (Mus musculus, UniProt Q8BHC7)", "T1 sequence (Q8BHC7 1-315)": "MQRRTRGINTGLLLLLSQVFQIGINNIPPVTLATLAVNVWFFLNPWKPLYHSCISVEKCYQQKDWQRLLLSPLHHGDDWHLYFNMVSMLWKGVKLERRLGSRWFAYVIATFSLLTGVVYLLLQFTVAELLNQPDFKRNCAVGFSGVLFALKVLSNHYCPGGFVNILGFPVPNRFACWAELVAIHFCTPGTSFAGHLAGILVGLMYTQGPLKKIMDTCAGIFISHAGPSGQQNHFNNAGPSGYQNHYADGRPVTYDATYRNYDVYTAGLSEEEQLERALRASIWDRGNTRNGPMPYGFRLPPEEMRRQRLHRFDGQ", "assay": "Cell-based rhomboid cleavage assay: pro-TGFalpha cleavage by overexpressed RHBDL4", "set-up": "expressed in transfected cells; host or cells: COS-7 (also HeLa and HEK293T), pcDNA3.1", "method": "as §2, with “(Invitrogen).” for “(Invitrogen). Sixteen hours post transfection, medium was replaced with serum-free medium containing 10 μM BB94 (British Biotech) unless otherwise stated. For activation of endogenous rhomboid activity, phorbol 12-myristate 13-acetate (PMA) (1 μM, from Sigma) or bombesin (100 nM, from Sigma) was added to the cell medium.”\n(§3) Western blotting. […] Protein was detected with anti phospho-EGFR antibody 9H2 (1:2000, Upstate). […] Bound antibodies were detected by incubation with secondary antibody (Santa Cruz Biotechnology) followed by enhanced chemiluminescence (Amersham Biosciences)."}, "[5]": {"test_system": "proteasome", "assay": "Proteasome inhibitor treatment of cells expressing pro-TGFalpha", "assay_type": "cell-based", "method": "as §2"}, "[6]": {"test_system": "protein kinase C (PKC)", "assay": "PMA-induced TGFalpha shedding (transactivation)", "assay_type": "cell-based", "settings": "PMA 1 μM", "method": "as §2, with “(Invitrogen).” for “(Invitrogen). Sixteen hours post transfection, medium was replaced with serum-free medium containing 10 μM BB94 (British Biotech) unless otherwise stated. For activation of endogenous rhomboid activity, phorbol 12-myristate 13-acetate (PMA) (1 μM, from Sigma) or bombesin (100 nM, from Sigma) was added to the cell medium.”\nas §3"}, "[7]": {"settings": "BB94 20 μM, FLAG6-tagged pro-TGFalpha"}}, "note": "Where a SMILES comes first, the peptide text is derived from it. The star is where a group is joined. Decanoyl = CCCCCCCCCC(=O)*; Cbz = O=C(OCc1ccccc1)*; CH2Cl = ClC*", "data": [{"smiles": "CNC(=O)[C@H](Cc1ccccc1)NC(=O)[C@H](CC(C)C)[C@H](CSc1cccs1)C(=O)NO", "note": "[BB94]", "values": [{"measurement": "Bombesin-enhanced HB-EGF release: sensitivity to inhibitor", "setting": "[1]; BB94 20 μM, bombesin treatment", "result": "insensitivity"}, {"measurement": "HB-EGF shedding by ADAM proteases in unstimulated cells: sensitivity to inhibitor", "setting": "[1]; unstimulated cells, BB94", "result": "sensitive"}, {"measurement": "Release of the 6 kDa form of TGFalpha", "setting": "[2]; BB94 20 μM, PMA induction, HEK293T", "result": "inhibited"}, {"measurement": "Generation of the higher MW forms of TGFalpha by endogenous shedding: sensitivity to inhibitor", "setting": "[3]; [7]", "result": "insensitive"}, {"measurement": "Trimming to smaller intermediates and species lacking the pro-peptide", "setting": "[3]; [7]", "result": "blocked"}, {"measurement": "Processing of the 37 kDa form to the 6 kDa secreted bioactive ligand: sensitivity to inhibitor", "setting": "[3]; bombesin-treated COS-7 cells overexpressing the bombesin receptor", "result": "sensitive"}, {"measurement": "RHBDL4 cleavage of pro-TGFalpha: sensitivity to inhibitor", "setting": "[4]; COS-7 cells, BB94 10 μM", "result": "insensitive"}, {"measurement": "RHBDL4-triggered TGFalpha release: sensitivity to inhibitor", "setting": "[4]; HEK293T cells, TGFalpha with juxtamembrane His8-tag", "result": "insensitive"}]}, {"smiles": "CC(C)C[C@@H](C=O)NC(=O)[C@H](CC(C)C)NC(=O)[C@H](CC(C)C)NC(=O)OCc1ccccc1", "note": "[MG132] (Cbz-Leu-Leu-Leu-aldehyde)", "values": [{"measurement": "Effect on pro-TGFalpha forms (proteasomal degradation)", "setting": "[5]; 5 μM", "result": "led to unglycosylated TGFalpha"}]}, {"smiles": "CCCCCCCCCCCCCC(=O)O[C@@H]1[C@@H](C)[C@@]2(O)[C@@H](C=C(CO)C[C@]3(O)C(=O)C(C)=C[C@@H]23)[C@@H]2C(C)(C)[C@]12OC(C)=O", "note": "[PMA, phorbol 12-myristate 13-acetate]", "values": [{"measurement": "BB94-insensitive TGFalpha release activity", "setting": "[6]", "result": "induced"}, {"measurement": "BB94-sensitive (metalloprotease dependent) trimming of TGFalpha", "setting": "[6]", "result": "enhanced"}]}, {"smiles": "CC(C)C[C@H](CC(=O)NO)C(=O)N[C@H](C(=O)N[C@@H](C)C(=O)NCCN)C(C)(C)C", "note": "[TAPI-2]", "values": [{"measurement": "Generation and release of the higher molecular weight form of TGFalpha", "setting": "[2]; inhibitor 20 μM", "result": "none of these inhibitors of known proprotein convertases had an effect"}]}, {"smiles": "CC[C@H](C)[C@H](NC(=O)[C@H]([C@@H](C)CC)N(C)C(C)=O)C(=O)N[C@H](C(=O)N[C@@H](CC(C)C)C(=O)[C@@]1(C)CO1)[C@@H](C)O", "note": "[epoxomicin]", "values": [{"measurement": "Effect on pro-TGFalpha forms (proteasomal degradation)", "setting": "[5]; 2 μM", "result": "led to unglycosylated TGFalpha"}]}, {"smiles": "CCCCCCCCCC(=O)N[C@@H](CCCN=C(N)N)C(=O)N[C@H](C(=O)N[C@@H](CCCCN)C(=O)N[C@@H](CCCN=C(N)N)C(=O)CCl)C(C)C", "note": "[furin inhibitor I] (Decanoyl-RVKR-CH2Cl)", "values": [{"measurement": "Generation and release of the higher molecular weight form of TGFalpha", "setting": "[2]; inhibitor 100 μM", "result": "none of these inhibitors of known proprotein convertases had an effect"}]}]}
